Laboratory results published in the NIST ThermoML archive (doi:10.1021/je050429b).
± gives the expanded uncertainty stated by the source.

Settings: Gas, Oscillating disk viscometry

CO [methanol]
Settings	viscosity [mPa·s]
297.41 K, Amount density=10.1 mol/m3	0.009532 ± 0.00049
297.43 K, Amount density=8.17 mol/m3	0.009551 ± 0.00049
297.64 K, Amount density=3.79 mol/m3	0.009594 ± 0.00049
297.92 K, Amount density=38.68 mol/m3	0.009555 ± 0.00049
298.16 K, Amount density=6.32 mol/m3	0.009594 ± 0.00049
298.54 K, Amount density=13.2 mol/m3	0.009579 ± 0.00049
298.71 K, Amount density=49.53 mol/m3	0.009576 ± 0.00049
299.79 K, Amount density=32.22 mol/m3	0.009602 ± 0.00049
299.92 K, Amount density=24.58 mol/m3	0.009618 ± 0.00049
301.53 K, Amount density=17.93 mol/m3	0.009672 ± 0.00049
310.88 K, Amount density=24.58 mol/m3	0.009948 ± 0.0005
311.12 K, Amount density=17.93 mol/m3	0.009959 ± 0.0005
311.23 K, Amount density=8.17 mol/m3	0.01002 ± 0.0005
311.6 K, Amount density=32.22 mol/m3	0.009969 ± 0.0005
311.6 K, Amount density=38.68 mol/m3	0.009971 ± 0.0005
312.25 K, Amount density=6.32 mol/m3	0.01008 ± 0.0005
312.54 K, Amount density=3.79 mol/m3	0.0101 ± 0.0005
313.89 K, Amount density=10.1 mol/m3	0.01008 ± 0.0005
314.18 K, Amount density=13.2 mol/m3	0.01008 ± 0.0005
314.2 K, Amount density=49.53 mol/m3	0.01004 ± 0.0005
324.75 K, Amount density=3.79 mol/m3	0.0105 ± 0.00052
324.77 K, Amount density=49.53 mol/m3	0.01037 ± 0.00051
324.78 K, Amount density=32.22 mol/m3	0.01038 ± 0.00051
325.15 K, Amount density=8.17 mol/m3	0.0105 ± 0.00052
325.22 K, Amount density=10.1 mol/m3	0.0105 ± 0.00052
325.59 K, Amount density=17.93 mol/m3	0.01046 ± 0.00051
325.76 K, Amount density=13.2 mol/m3	0.01049 ± 0.00052
325.91 K, Amount density=6.32 mol/m3	0.01054 ± 0.00052
325.98 K, Amount density=24.58 mol/m3	0.01042 ± 0.00051
326.88 K, Amount density=38.68 mol/m3	0.01044 ± 0.00051
338.47 K, Amount density=8.17 mol/m3	0.01095 ± 0.00053
338.62 K, Amount density=10.1 mol/m3	0.01094 ± 0.00053
338.66 K, Amount density=32.22 mol/m3	0.01083 ± 0.00052
338.69 K, Amount density=3.79 mol/m3	0.01098 ± 0.00053
338.72 K, Amount density=38.68 mol/m3	0.0108 ± 0.00052
338.81 K, Amount density=49.53 mol/m3	0.01077 ± 0.00052
339.25 K, Amount density=17.93 mol/m3	0.01094 ± 0.00053
339.34 K, Amount density=13.2 mol/m3	0.01096 ± 0.00053
339.77 K, Amount density=6.32 mol/m3	0.01101 ± 0.00053
340.14 K, Amount density=24.58 mol/m3	0.01092 ± 0.00053
352.35 K, Amount density=49.53 mol/m3	0.01125 ± 0.00054
352.62 K, Amount density=8.17 mol/m3	0.01143 ± 0.00054
352.86 K, Amount density=10.1 mol/m3	0.01142 ± 0.00054
352.91 K, Amount density=3.79 mol/m3	0.01148 ± 0.00054
352.93 K, Amount density=3.79 mol/m3	0.01144 ± 0.00054
353.05 K, Amount density=8.17 mol/m3	0.01146 ± 0.00054
353.06 K, Amount density=38.68 mol/m3	0.01132 ± 0.00054
353.18 K, Amount density=38.68 mol/m3	0.01134 ± 0.00054
353.2 K, Amount density=49.53 mol/m3	0.01127 ± 0.00054
353.22 K, Amount density=13.2 mol/m3	0.01143 ± 0.00054
353.26 K, Amount density=13.2 mol/m3	0.01143 ± 0.00054
353.3 K, Amount density=6.32 mol/m3	0.01148 ± 0.00054
353.44 K, Amount density=10.1 mol/m3	0.01147 ± 0.00054
353.58 K, Amount density=17.93 mol/m3	0.01143 ± 0.00054
353.71 K, Amount density=24.58 mol/m3	0.01142 ± 0.00054
353.78 K, Amount density=32.22 mol/m3	0.01139 ± 0.00054
355.04 K, Amount density=32.22 mol/m3	0.01143 ± 0.00054
355.05 K, Amount density=24.58 mol/m3	0.01143 ± 0.00054
355.5 K, Amount density=6.32 mol/m3	0.01152 ± 0.00055
355.67 K, Amount density=17.93 mol/m3	0.01148 ± 0.00055
366.59 K, Amount density=10.1 mol/m3	0.01189 ± 0.00056
366.82 K, Amount density=8.17 mol/m3	0.01191 ± 0.00056
366.84 K, Amount density=3.79 mol/m3	0.01191 ± 0.00056
366.93 K, Amount density=17.93 mol/m3	0.01188 ± 0.00056
366.99 K, Amount density=32.22 mol/m3	0.01184 ± 0.00055
367.1 K, Amount density=13.2 mol/m3	0.01189 ± 0.00056
367.81 K, Amount density=49.53 mol/m3	0.01182 ± 0.00055
367.84 K, Amount density=6.32 mol/m3	0.01195 ± 0.00056
367.87 K, Amount density=38.68 mol/m3	0.01184 ± 0.00055
368.03 K, Amount density=24.58 mol/m3	0.0119 ± 0.00056
380.86 K, Amount density=10.1 mol/m3	0.01238 ± 0.00057
380.97 K, Amount density=13.2 mol/m3	0.01236 ± 0.00057
381.27 K, Amount density=3.79 mol/m3	0.0124 ± 0.00057
381.27 K, Amount density=49.53 mol/m3	0.0123 ± 0.00057
381.38 K, Amount density=8.17 mol/m3	0.01241 ± 0.00057
381.53 K, Amount density=17.93 mol/m3	0.01238 ± 0.00057
381.9 K, Amount density=38.68 mol/m3	0.01233 ± 0.00057
381.92 K, Amount density=32.22 mol/m3	0.01237 ± 0.00057
382.15 K, Amount density=6.32 mol/m3	0.01244 ± 0.00057
383.55 K, Amount density=24.58 mol/m3	0.01243 ± 0.00057
394.63 K, Amount density=10.1 mol/m3	0.01285 ± 0.00059
394.76 K, Amount density=8.17 mol/m3	0.01286 ± 0.00059
394.88 K, Amount density=49.53 mol/m3	0.01278 ± 0.00058
395.16 K, Amount density=32.22 mol/m3	0.01282 ± 0.00059
395.18 K, Amount density=24.58 mol/m3	0.01282 ± 0.00059
395.23 K, Amount density=17.93 mol/m3	0.01285 ± 0.00059
395.37 K, Amount density=38.68 mol/m3	0.01281 ± 0.00058
395.39 K, Amount density=3.79 mol/m3	0.01287 ± 0.00059
395.4 K, Amount density=13.2 mol/m3	0.01285 ± 0.00059
396.23 K, Amount density=6.32 mol/m3	0.01291 ± 0.00059
409.39 K, Amount density=13.2 mol/m3	0.01333 ± 0.0006
409.51 K, Amount density=10.1 mol/m3	0.01336 ± 0.0006
409.75 K, Amount density=24.58 mol/m3	0.01333 ± 0.0006
410.18 K, Amount density=32.22 mol/m3	0.01333 ± 0.0006
410.35 K, Amount density=38.68 mol/m3	0.01331 ± 0.0006
411.3 K, Amount density=3.79 mol/m3	0.01343 ± 0.0006
411.31 K, Amount density=6.32 mol/m3	0.01342 ± 0.0006
411.32 K, Amount density=49.53 mol/m3	0.01335 ± 0.0006
412.01 K, Amount density=17.93 mol/m3	0.01338 ± 0.0006
412.33 K, Amount density=8.17 mol/m3	0.01346 ± 0.0006
423.31 K, Amount density=8.17 mol/m3	0.01382 ± 0.00062
423.5 K, Amount density=3.79 mol/m3	0.01383 ± 0.00062
423.52 K, Amount density=49.53 mol/m3	0.01376 ± 0.00061
423.77 K, Amount density=13.2 mol/m3	0.01383 ± 0.00062
423.88 K, Amount density=32.22 mol/m3	0.0138 ± 0.00061
423.96 K, Amount density=10.1 mol/m3	0.01385 ± 0.00062
424.38 K, Amount density=17.93 mol/m3	0.01383 ± 0.00062
424.41 K, Amount density=24.58 mol/m3	0.01382 ± 0.00062
424.73 K, Amount density=6.32 mol/m3	0.01388 ± 0.00062
425.1 K, Amount density=38.68 mol/m3	0.0138 ± 0.00061
437.6 K, Amount density=10.1 mol/m3	0.01431 ± 0.00063
437.81 K, Amount density=8.17 mol/m3	0.01431 ± 0.00063
438.41 K, Amount density=13.2 mol/m3	0.01432 ± 0.00063
439.16 K, Amount density=32.22 mol/m3	0.01431 ± 0.00063
439.2 K, Amount density=24.58 mol/m3	0.01432 ± 0.00063
439.47 K, Amount density=17.93 mol/m3	0.01434 ± 0.00063
439.56 K, Amount density=49.53 mol/m3	0.0143 ± 0.00063
440.07 K, Amount density=6.32 mol/m3	0.01441 ± 0.00063
440.61 K, Amount density=3.79 mol/m3	0.01441 ± 0.00063
441.61 K, Amount density=38.68 mol/m3	0.01437 ± 0.00063
466.95 K, Amount density=24.58 mol/m3	0.01528 ± 0.00066
467.33 K, Amount density=10.1 mol/m3	0.0153 ± 0.00066
467.34 K, Amount density=38.68 mol/m3	0.01528 ± 0.00066
467.49 K, Amount density=49.53 mol/m3	0.01528 ± 0.00066
467.62 K, Amount density=32.22 mol/m3	0.01528 ± 0.00066
467.74 K, Amount density=13.2 mol/m3	0.01531 ± 0.00066
468.08 K, Amount density=17.93 mol/m3	0.01532 ± 0.00066
468.85 K, Amount density=3.79 mol/m3	0.01537 ± 0.00066
496.21 K, Amount density=38.68 mol/m3	0.01626 ± 0.00069
496.4 K, Amount density=8.17 mol/m3	0.01627 ± 0.00069
496.41 K, Amount density=17.93 mol/m3	0.01629 ± 0.00069
496.43 K, Amount density=13.2 mol/m3	0.01627 ± 0.00069
496.44 K, Amount density=24.58 mol/m3	0.01629 ± 0.00069
496.48 K, Amount density=49.53 mol/m3	0.01625 ± 0.00069
496.56 K, Amount density=10.1 mol/m3	0.01629 ± 0.00069
496.65 K, Amount density=3.79 mol/m3	0.01631 ± 0.00069
496.97 K, Amount density=32.22 mol/m3	0.0163 ± 0.00069
525.14 K, Amount density=49.53 mol/m3	0.01724 ± 0.00072
525.41 K, Amount density=3.79 mol/m3	0.01727 ± 0.00072
525.42 K, Amount density=8.17 mol/m3	0.01727 ± 0.00072
526.17 K, Amount density=32.22 mol/m3	0.01727 ± 0.00072
526.39 K, Amount density=13.2 mol/m3	0.01729 ± 0.00072
526.84 K, Amount density=24.58 mol/m3	0.0173 ± 0.00072
527.02 K, Amount density=38.68 mol/m3	0.01727 ± 0.00072
527.99 K, Amount density=17.93 mol/m3	0.01734 ± 0.00072
546.79 K, Amount density=8.17 mol/m3	0.018 ± 0.00074
546.84 K, Amount density=13.2 mol/m3	0.01798 ± 0.00074
547.13 K, Amount density=3.79 mol/m3	0.01802 ± 0.00074
547.3 K, Amount density=32.22 mol/m3	0.01801 ± 0.00074
547.49 K, Amount density=38.68 mol/m3	0.018 ± 0.00074
548.04 K, Amount density=49.53 mol/m3	0.01803 ± 0.00074
548.52 K, Amount density=17.93 mol/m3	0.01806 ± 0.00074
567.4 K, Amount density=13.2 mol/m3	0.01868 ± 0.00076
567.53 K, Amount density=32.22 mol/m3	0.01872 ± 0.00076
568.11 K, Amount density=38.68 mol/m3	0.01872 ± 0.00076
569.26 K, Amount density=3.79 mol/m3	0.01879 ± 0.00076
569.93 K, Amount density=49.53 mol/m3	0.01875 ± 0.00076
571.83 K, Amount density=17.93 mol/m3	0.01886 ± 0.00077
596.93 K, Amount density=13.2 mol/m3	0.01969 ± 0.00079
597.12 K, Amount density=32.22 mol/m3	0.01975 ± 0.00079
597.15 K, Amount density=17.93 mol/m3	0.01973 ± 0.00079
597.28 K, Amount density=49.53 mol/m3	0.01971 ± 0.00079
597.6 K, Amount density=3.79 mol/m3	0.01977 ± 0.00079
598.6 K, Amount density=38.68 mol/m3	0.01979 ± 0.00079
602.56 K, Amount density=8.17 mol/m3	0.01994 ± 0.0008
